Tests used:
[1] = target: T1, FLT3 (Homo sapiens, UniProt P36888); experiment: FLT3 kinase in vitro inhibitory activity experiment (Caliper mobility shift, conversion rate); type: biochemical; conditions: IC50 class, read-out: Enzyme activity FLT3
T1 construct: purchased Carna 08-145
T1 sequence (P36888 27-993): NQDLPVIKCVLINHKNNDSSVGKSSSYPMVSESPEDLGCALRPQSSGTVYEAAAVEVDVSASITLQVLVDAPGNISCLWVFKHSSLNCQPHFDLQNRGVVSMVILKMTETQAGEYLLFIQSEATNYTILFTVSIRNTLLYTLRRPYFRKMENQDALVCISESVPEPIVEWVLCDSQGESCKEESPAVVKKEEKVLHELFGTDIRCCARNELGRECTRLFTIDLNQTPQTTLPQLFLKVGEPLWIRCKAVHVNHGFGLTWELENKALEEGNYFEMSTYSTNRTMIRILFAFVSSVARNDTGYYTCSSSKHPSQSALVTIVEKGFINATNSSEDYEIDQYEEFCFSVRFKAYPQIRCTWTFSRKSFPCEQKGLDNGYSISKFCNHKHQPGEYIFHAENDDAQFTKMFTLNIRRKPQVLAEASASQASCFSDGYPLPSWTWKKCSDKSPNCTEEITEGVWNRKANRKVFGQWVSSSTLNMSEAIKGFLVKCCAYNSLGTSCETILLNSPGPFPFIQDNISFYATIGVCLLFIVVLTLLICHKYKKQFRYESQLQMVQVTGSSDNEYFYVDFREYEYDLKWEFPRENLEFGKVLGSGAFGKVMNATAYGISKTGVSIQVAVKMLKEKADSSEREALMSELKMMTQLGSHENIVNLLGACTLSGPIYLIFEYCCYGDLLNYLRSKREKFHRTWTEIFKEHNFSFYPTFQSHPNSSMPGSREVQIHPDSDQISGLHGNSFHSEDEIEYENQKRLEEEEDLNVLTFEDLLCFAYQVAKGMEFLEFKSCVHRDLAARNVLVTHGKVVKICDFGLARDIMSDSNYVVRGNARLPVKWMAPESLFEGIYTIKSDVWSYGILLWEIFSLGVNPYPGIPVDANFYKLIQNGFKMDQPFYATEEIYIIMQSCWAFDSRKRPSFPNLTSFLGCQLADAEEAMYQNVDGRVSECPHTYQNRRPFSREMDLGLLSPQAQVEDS
How it was run: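 Tested in single wells as ten 3-fold dilutions of a 1 μM initial stock. Compound and FLT3 stood 10 min at room temperature; ATP with Kinase substrate 2 was then added for 30 min at room temperature and the reaction stopped. Conversion was measured by Caliper mobility shift, and inhibition was normalised to control-well conversion.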

[2] = test system: MV4;11 cells; experiment: MV4;11 in vitro inhibition of proliferation assay (CellTiter-Glo, 72 hours); type: cell-based; conditions: Homo sapiens, MV4-11, 72 h, IC50 class, read-out: Inhibitory activity of cell proliferation MV4;11
How it was run: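 IC50 came from four-parameter fitting of inhibition rates, based on CellTiter-Glo luminescence after 72 hours at 37° C. Each well held 2000 MV4;11 cells grown in IMDM with 10% serum. Compounds formed a nine-point, threefold DMSO series starting at 10 uM, tested in triplicate at 0.3% final DMSO.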

SMILES	IC50 [1]	IC50 [2]
CCc1nc2c(N)ncc(-c3cnn(-c4ccc(F)c(F)c4)c3)c2nc1N[C@@H]1CC[C@H](O)C1 [Compound 342]	≤ 10 nM	10 to 100 nM
CCc1nc2c(N)ncc(-c3cnn(-c4ccnc(F)c4)c3)c2nc1N[C@@H]1CC[C@H](O)C1 [Compound 343]	≤ 10 nM	≤ 10 nM
CCc1nc2c(N)ncc(-c3cnn(-c4ncc(OC(C)C)cn4)c3)c2nc1N[C@@H]1CC[C@H](O)C1 [Compound 344]	≤ 10 nM	≤ 10 nM
CCc1nc2c(N)ncc(-c3cnn(-c4ccnc(Cl)c4)c3)c2nc1N[C@@H]1CC[C@H](O)C1 [Compound 345]	≤ 10 nM	≤ 10 nM
CCc1nc2c(N)ncc(-c3cnn(-c4ncc(C#N)cn4)c3)c2nc1NC1CCOCC1 [Compound 346]	≤ 10 nM	10 to 100 nM
CCc1nc2c(N)ncc(-c3cnn(-c4ccc(C(C)(C)O)nc4)c3)c2nc1NC1CCOCC1 [Compound 347]	≤ 10 nM	10 to 100 nM
CCc1nc2c(N)ncc(-c3cnn(-c4ncc(C(C)(C)O)cn4)c3)c2nc1NC1CCOCC1 [Compound 348]	≤ 10 nM	10 to 100 nM
CCc1nc2c(N)ncc(-c3cnn(-c4cnc(C(C)(C)O)nc4)c3)c2nc1NC1CCOCC1 [Compound 349]	≤ 10 nM	10 to 100 nM
CCc1nc2c(N)ncc(-c3cnn(-c4ccc(CNC)cc4)c3)c2nc1NC1CCOCC1 [Compound 350]	≤ 10 nM	≤ 10 nM
CCc1nc2c(N)ncc(-c3cnn(-c4ccc(C(C)(C)C)cc4)c3)c2nc1N[C@@H]1CC[C@H](O)C1 [Compound 351]	≤ 10 nM	10 to 100 nM
CCc1nc2c(N)ncc(-c3cnn(-c4nccc(C(C)(C)O)n4)c3)c2nc1N[C@@H]1CC[C@H](O)C1 [Compound 352]	≤ 10 nM	10 to 100 nM

Results, then the compound that gave them:

IC50 [1]	IC50 [2]	SMILES
≤ 10 nM	10 to 100 nM	CCc1nc2c(N)ncc(-c3cnn(-c4ccc(C#N)c(F)c4)c3)c2nc1N[C@@H]1CC[C@H](O)C1 [Compound 353]
≤ 10 nM	10 to 100 nM	CCc1nc2c(N)ncc(-c3cnn(-c4ccc(C(C)(C)O)nn4)c3)c2nc1N[C@@H]1CC[C@H](O)C1 [Compound 354]
≤ 10 nM	≤ 10 nM	CCc1nc2c(N)ncc(-c3cnn(-c4ccc(C(C)(C)O)c(F)c4)c3)c2nc1N[C@@H]1CC[C@H](O)C1 [Compound 355]
≤ 10 nM	10 to 100 nM	CCc1nc2c(N)ncc(-c3cnn(-c4cnc(C(C)(C)O)nc4)c3)c2nc1N[C@@H]1CC[C@@H](O)C1 [Compound 356]
≤ 10 nM	≤ 10 nM	CCc1nc2c(N)ncc(-c3cnn(-c4ccc5c(c4)CCO5)c3)c2nc1N[C@@H]1CC[C@H](O)C1 [Compound 357]
10 to 100 nM	100 to 500 nM	CCc1nc2c(N)ncc(-c3ccc(NCCNC(=O)[C@H](C)N(C)C(=O)/C=C/CN(C)C)c(OC)c3)c2nc1NC1CCOCC1 [Compound 358, (S,E)-N-(1-((2-((4-(5-amino-3-ethyl-2-((tetrahydro-2H-pyran-4-yl)amino)pyridino[3,4b]pyrazine-8-yl)-2-methoxyphenyl)amino)ethyl)amino)-1-oxopropane-2-yl)-4-(dimethylamino)-N-methylbutyl-2-enamide]
